# Tests used:
# [1] = tested on: Drp1 knocked-down A549 cells; experiment: MFC in Drp1 knocked-down A549 cells with FCCP-induced fission; assay type: cell-based, human; details: FIG. 5B
# Protocol: (§4) Higher MFC indicates more fragmented mitochondrial network.
# Carbonyl cyanide-4-(trifluoromethoxy) phenylhydrazone (FCCP) was added, a mitochondrial oxidative phosphorylation uncoupler, to cells treated with siDrp1.
# [2] = tested on: SK-MES-1; experiment: Apoptosis assay (Annexin V/PI) in SK-MES-1 cells; assay type: cell-based; details: 0.25-0.5 μM of Drpitor1a
# Protocol: (§5) Apoptosis assay: Cell apoptosis was determined by the Annexin V+ propidium iodide (PI) method using Alexa Fluor 488 Annexin V/Dead Cell Apoptosis Kit (available from ThermoFisher Scientific). A549 cells were collected 48 hours after compound treatment. Percentage of Annexin V (+) and PI (+) cells was determined using SONY S[MUT] flow cytometer and compared between control group and treatment groups.
# [3] = tested on: SW 900; experiment: Apoptosis assay (Annexin V/PI) in SW 900 cells; assay type: cell-based; details: 0.25-0.5 μM of Drpitor1a
# Protocol: as §5
# [4] = tested on: MCF7; experiment: Colony formation assay in MCF7 cells; assay type: cell-based; details: 0.5 μM of Drpitor1a
# Protocol: (§1) Colony formation assay: Cells were seeded in 6-well plates and optimal concentrations of compounds were added 24 hours after seeding. After 48 hours of compound treatment, cells were disassociated with 0.25% trypsin-EDTA (25200114, Gibco, Burlington, ON, Canada) and reseeded in a 48-well plate at a density of 200 live cells/mL. After 7-10 days of culture, cells were fixed with 4% paraformaldehyde and then stained with 1% crystal violet (V5265, Millipore Sigma, Etobicoke, ON, Canada). Images of cell colonies were taken by a Panasonic LX3 digital camera (Kadoma, Osaka, Japan).
# [5] = tested on: A549 cells; experiment: Mitochondrial morphology analysis (MFC, machine learning) in A549 cells; details: for Concentration (dose) at which mitochondrial fission was inhibited: in vitro screening
# Protocol: Cell Culture: A549 cells were purchased from the American Type Culture Collection (ATCC) and were cultured in Dulbecco's Modified Eagle's Medium (DMEM) (D5796, Sigma Aldrich) supplemented with 10% fetal bovine serum (FBS). Cells were cultured at 37° C. in a humidified incubator balanced with 5% CO2.
# Compound solution preparation for in vitro experiments: Candidate compounds were dissolved in anhydrous Dimethyl Sulfoxide (DMSO) (available from Sigma Aldrich), filtered by a 0.20 μm PTFE filter and added to culture medium to make a working solution at designated concentrations. Final concentration of DMSO in culture medium was s 0.1%. Same volume of DMSO was used as control.
# as §4
# Mitochondrial morphology was used as an indicator of Drp1 activity in the in vitro screening, such that Drp1 inhibitors would be identified by an increase in fusion.
# [6] = tested on: A549; experiment: Apoptosis assay (Annexin V/PI) in A549 cells; assay type: cell-based, human; details: 1.0 μM of Drpitor1, 0.25-0.5 μM of Drpitor1a, 48 hours
# Protocol: Apoptosis assay: Cell apoptosis was determined by the Annexin V+ propidium iodide (PI) method using Alexa Fluor 488 Annexin V/Dead Cell Apoptosis Kit (available from ThermoFisher Scientific). A549 cells were collected 48 hours after compound treatment. Percentage of Annexin V (+) and PI (+) cells was determined using SONY S[…] flow cytometer and compared between control group and treatment groups.
# [7] = Liver and kidney toxicity (blood samples), body weight in xenotransplant mice
# Description: (§2) In vivo xenotransplant tumor model: BALB/c Rag2^−/−; IL2Rgc^−/− double knock out mice were kindly provided by Dr. M Ito, Central Institute for Experimental Animals, Kawasaki, Japan and were bred in the Animal Facility at Queen's University. Animal protocols were approved by the University Animal Care Committee of Queen's University. A xenotransplant mouse model of human lung cancer was established by subcutaneous injection of A549 cells ([…] per tumor) at the back flank regions. […] Equal volumes of solvents were injected as control. […] Tumor length and width was measured every 2 days. Animals were euthanized with cervical dislocation under 5% isoflurane inhalation followed by tumor collection. Blood samples were collected for liver and kidney toxicity studies just before euthanasia.
# [8] = tested on: SK-MES-1; experiment: Cell proliferation assay (EdU) in SK-MES-1 cells; assay type: cell-based; details: 0.5 μM of Drpitor1a
# Protocol: (§3) Cell proliferation assay: Cell proliferation was measured 48 hours post compound treatment using Click-iT® EdU Alexa Fluor® 488 Imaging Kit (available from Thermo Fisher Scientific) according to manufacturer's protocol. 1.0×10^5 cells were seeded per well in 6-well plates and compounds were added 24 hours after seeding. EdU was allowed to incorporate 10 hours before flow cytometry. Percentage of cells incorporated with EdU in each group was determined using SONY SH800S flow cytometer and compared between control group and treatment groups.
# [9] = tested on: SK-LU-1; experiment: Apoptosis assay (Annexin V/PI) in SK-LU-1 cells; assay type: cell-based; details: 0.25-0.5 μM of Drpitor1a
# Protocol: as §5
# [10] = tested on: MCF7; experiment: Mitochondrial fragmentation count in MCF7 cells; assay type: cell-based; details: 0.1-0.5 μM of Drpitor1a
# [11] = tested on: mutant mouse Drp1 K38A in siDrp1-treated A549 cells; experiment: MFC in A549 cells transfected with siDrp1+mDrp1 K38A; details: FIG. 5A
# [12] = tested on: SW 900; experiment: Cell proliferation assay (EdU) in SW 900 cells; assay type: cell-based; details: 0.5 μM of Drpitor1a
# Protocol: as §3
# [13] = tested on: SK-MES-1; experiment: Mitochondrial fragmentation count in SK-MES-1 cells; assay type: cell-based; details: 0.1-0.5 μM of Drpitor1a
# [14] = tested on: SK-LU-1; experiment: Colony formation assay in SK-LU-1 cells; assay type: cell-based; details: 0.5 μM of Drpitor1a
# Protocol: as §1
# [15] = tested on: SK-LU-1; experiment: Cell proliferation assay (EdU) in SK-LU-1 cells; assay type: cell-based; details: 0.5 μM of Drpitor1a
# Protocol: as §3
# [16] = tested on: U373 (Glioblastoma cells); experiment: Cell proliferation of U373 cells; assay type: cell-based; details: 0.15~2.5 μM of Drpitor1a, Ctrl = 87.2
# Protocol: as §3
# [17] = tested on: PAH PASMC cell lines; experiment: Cell proliferation of PAH PASMC cell lines; assay type: cell-based, human; design: unit: % EdU-positive cells; details: 1.0 μM of Drpitor1a
# Protocol: as §3
# [18] = tested on: SW 900; experiment: Mitochondrial fragmentation count in SW 900 cells; assay type: cell-based; details: 0.1-0.5 μM of Drpitor1a
# [19] = tested on: right ventricle ischemia-reperfusion injury; details: 0.5 μM in perfusate; ex vivo rat heart
# Protocol: Briefly, Sprague-Dawley rats were anesthetized with an intraperitoneal injection of ketamine (75 mg/kg)/xylazine (10 mg/kg). The hearts were harvested and perfused with oxygenated Krebs' solution at 37° C. at a constant pressure of 85 cmH2O on a Langendorff apparatus. RV pressure was measured by a fluid-filled balloon placed in the RV connected to a pressure transducer (Harvard Apparatus; Holliston, Mass., USA). High fidelity signals were recorded using PowerLab 8/35 data acquisition hardware and analyzed using LabChart Pro 8 software (AD Instruments; Colorado Springs, Colo., USA).
# IR protocol: Hearts were stabilized for 10 minutes before the IR experiment. Two consecutive cycles of 20 minutes of global ischemia followed by 20 minutes of reperfusion were performed. […] Same volume of DMSO was used as a negative control for test compound. […]
# Mitochondrial superoxide imaging and quantification: RV tissues collected from Langendorff RV-IR experiments were cut into pieces of 1×1×1 mm^3 and were incubated with 5 μM of MitoSOX™ Red mitochondrial superoxide indicator (available from Molecular Probes™) at 37° C. for 15 minutes. […] Intensity of the MitoSOX™ Red mitochondrial superoxide indicator was analyzed by the Leica LAS X software.
# Test compound was added to the perfusate prior to IR. […] After IR, RV myocardium was collected and mitochondrial superoxide was measured.
# [20] = tested on: mitochondrial complex I; experiment: Mitochondrial complex I activity in A549 cells; assay type: cell-based, human; details: mdivi-1 50 μM, Drpitor1a 0.5 μM; FIG. 5C
# [21] = tested on: MCF7; experiment: Cell proliferation assay (EdU) in MCF7 cells; assay type: cell-based; details: 0.5 μM of Drpitor1a
# Protocol: as §3
# [22] = tested on: A549; experiment: Cell proliferation assay (EdU) in A549 cells; assay type: cell-based, human; details: for Cell proliferation: A549, 0.5 μM of Drpitor1a, 48 hours; for Percentage of EdU incorporated cells: mdivi-1 50 μM, Drpitor1 0.75 μM, Drpitor1a 0.5 μM, FIG. 6A
# Protocol: as §3
# [23] = tested on: U87 (Glioblastoma cells); experiment: Cell proliferation of U87 cells; assay type: cell-based; details: 0.15~2.5 μM of Drpitor1a, Ctrl = 1
# Protocol: as §3
# [24] = tested on: SK-LU-1; experiment: Mitochondrial fragmentation count in SK-LU-1 cells; assay type: cell-based; details: 0.1-0.5 μM of Drpitor1a
# [25] = tested on: Daoy cells (Medulloblastoma cells); experiment: Cell proliferation of Daoy cells; assay type: cell-based; details: 0.15~2.5 μM of Drpitor1a, Ctrl = 1
# Protocol: as §3
# [26] = tested on: A549; experiment: Colony formation assay in A549 cells; assay type: cell-based, human; details: 0.5 μM of Drpitor1a
# Protocol: as §1
# [27] = tested on: SK-MES-1; experiment: Colony formation assay in SK-MES-1 cells; assay type: cell-based; details: 0.5 μM of Drpitor1a
# Protocol: as §1
# [28] = tested on: A549 cells xenotransplant tumor; experiment: In vivo xenotransplant tumor model of human lung cancer; design: species or system mouse; details: 10 mg/kg intraperitoneally and intratumorally; end of study
# Description: as §2
# [29] = 10 mg/kg of Drpitor1a, blood before euthanasia
Compound,Colony number [4],Concentration giving the same degree of inhibition of mitochondrial fission (potency) ([5]; A549 cells) [µM],Apoptosis [6],Cell proliferation [8],MFC in cells transfected with siDrp1+mDrp1 K38A [11],Cell proliferation [12],Colony number [14],Cell proliferation [15],Cell proliferation [16],Cell proliferation ([17]; PAH PASMC cell line P1),Cell proliferation ([17]; PAH PASMC cell line P3),Cell proliferation ([17]; PAH PASMC cell line P7),Mitochondrial complex I activity in A549 cells [20],Cell proliferation [21],Cell proliferation [22],Percentage of EdU incorporated cells [22],Cell proliferation [23],Cell proliferation [25],Colony number [26],Colony number [27],further results
"N#CC(C#N)=NNc1ccc(OC(F)(F)F)cc1 [FCCP, carbonyl cyanide-4-(trifluoromethoxy)phenylhydrazone, reference compound]",,,,,,,,,,,,,,,,,,,,,Mitochondrial fission in Drp1 knocked-down A549 cells [1]: caused mitochondrial fission
O=C1c2ccncc2C(=O)c2c1[nH]c1ccccc21 [Drpitor1a],0 ± 0,0.5,25.06 ± 0.4675,5.523 ± 0.3613,this reduction was not seen,28.37 ± 0.3712,0.6667 ± 0.3333,5.04 ± 0.5525,45.33 ± 0.2728,3.367 ± 0.3335,0.7167 ± 0.05608,9.68 ± 0.563,no significant change,3.437 ± 0.2325,46 ± 0.8505,significantly reduced,0.1084 ± 0.001408,0.7078 ± 0.005519,1.5 ± 0.2236,0 ± 0,"Apoptosis [2]: 2.464 ± 0.131; Apoptosis [3]: 5.686 ± 0.1402; Percentage area of elongated (filamentous) mitochondria, machine learning ([5]; FIG. 3B): increased percentage area of elongated mitochondria; Albumin [7, 29]: 26.75 ± 0.9465 g/L; BUN [7, 29]: 6.225 ± 1.186 mmol/L; Cholesterol [7, 29]: 4.188 ± 0.3317 mmol/L; Total bilirubin [7, 29]: 2.5 ± 0.324 µmol/L; Body weight ([7]; 10 mg/kg, 22 days of therapy): did not reduce body weight; Apoptosis [9]: 3.6 ± 0.2292; MFC [10]: 0.5479 ± 0.05737; MFC [13]: 0.2291 ± 0.02596; MFC [18]: 0.3345 ± 0.0309; Mean mitochondrial volume of cardiomyocytes during RV-IR [19]: increased mean mitochondrial volume; MitoSOX intensity (mitochondrial superoxide) in RV during IR [19]: lower MitoSOX intensity; MFC on adding compound to siDrp1+FCCP treatment ([1]; A549, Drpitor1a 0.25 μM): reduction of MFC was not seen; Dose dependence of effect on cell proliferation [22]: dose-dependent; MFC [24]: 0.3367 ± 0.03623; Reduction in tumor volume [28]: 43.8%; Reduction in tumor weight [28]: 43.9%"
N#Cc1cc2c3ccccc3[nH]c2c2ccccc12 [Compound 13],,,,,,,,,,,,,,,,,,,,,"Concentration (dose) at which mitochondrial fission was inhibited ([5]; A549 cells): 20 µM; Inhibition of mitochondrial fission (reduction in MFC) in in vitro screening ([5]; A549 cells, 17 compounds screened, FIG. 1): most significant inhibition of mitochondrial fission"
"COc1cc(-n2c(=S)[nH]c3ccccc3c2=O)c(Cl)cc1Cl [mdivi-1, mitochondrial division inhibitor 1, reference compound]",7.167 ± 0.7491,25,15.3 ± 0.5213,24.97 ± 3.38,this reduction was not seen,50.1 ± 0.7211,2.5 ± 0.4282,29.5 ± 1.652,65.43 ± 0.06667,7.38 ± 0.1762,0.3567 ± 0.04372,7.78 ± 0.1882,no significant change,8.217 ± 1.256,32.43 ± 1.481,significantly reduced,0.9552 ± 0.01912,0.8464 ± 0.008105,0.5 ± 0.3416,5.5 ± 0.5627,Concentration (dose) at which mitochondrial fission was inhibited ([5]; A549 cells): 20 µM

# From US11229629B2, “Inhibitors of mitochondrial fission” (Queen's University at Kingston, priority 2019, dated 2022)
